Measurements as given in BigSolDB 2.1.

O=Cc1cc(Br)c(O)c(Br)c1
solubility (mole fraction)
Details | 278.15 K | 283.15 K | 288.15 K | 293.15 K | 298.15 K | 303.15 K | 308.15 K | 313.15 K | 318.15 K | 323.15 K
in 1,4-dioxane | – | – | 0.0128 | 0.0143 | 0.0161 | 0.0183 | 0.0208 | 0.0236 | 0.0266 | 0.03
in DMF | 0.00805 | 0.00912 | 0.0104 | 0.012 | 0.0137 | 0.0157 | 0.0178 | 0.0201 | 0.0225 | 0.0251
in DMSO | – | – | – | 0.00895 | 0.0101 | 0.0115 | 0.0132 | 0.0152 | 0.0174 | 0.0203
in acetonitrile | 0.002 | 0.00233 | 0.00277 | 0.00328 | 0.00383 | 0.00452 | 0.00531 | 0.00621 | 0.00734 | 0.0086
in cyclohexane | – | 0.000245 | 0.000317 | 0.000408 | 0.000513 | 0.000637 | 0.000791 | 0.000965 | 0.00116 | 0.00139
in ethanol | 0.00281 | 0.00314 | 0.00358 | 0.00413 | 0.00477 | 0.00555 | 0.00646 | 0.00742 | 0.00851 | 0.00974
in ethyl acetate | 0.0055 | 0.00634 | 0.00729 | 0.00845 | 0.0098 | 0.0114 | 0.0131 | 0.015 | 0.0171 | 0.0194
in ethylene glycol | 0.00234 | 0.00274 | 0.00327 | 0.00397 | 0.00476 | 0.00571 | 0.00675 | 0.00796 | 0.00923 | 0.0107
in isobutanol | 0.00368 | 0.00422 | 0.0049 | 0.00569 | 0.00659 | 0.00762 | 0.00878 | 0.01 | 0.0115 | 0.0132
in isopropanol | 0.003 | 0.00343 | 0.00399 | 0.00467 | 0.00542 | 0.00629 | 0.00731 | 0.00841 | 0.00966 | 0.011
in methanol | 0.00195 | 0.0022 | 0.00252 | 0.00294 | 0.00341 | 0.00395 | 0.00457 | 0.00526 | 0.00604 | 0.00689
in n-butanol | 0.00412 | 0.00466 | 0.00539 | 0.00624 | 0.00726 | 0.00846 | 0.0098 | 0.0112 | 0.0128 | 0.0147
in n-octanol | 0.00788 | 0.00908 | 0.0105 | 0.0121 | 0.0139 | 0.016 | 0.0184 | 0.021 | 0.024 | 0.0275
in n-pentanol | 0.00662 | 0.00744 | 0.00859 | 0.0101 | 0.0116 | 0.0135 | 0.0155 | 0.0176 | 0.02 | 0.0226
in n-propanol | 0.00339 | 0.00379 | 0.00434 | 0.00499 | 0.00579 | 0.0067 | 0.00779 | 0.00897 | 0.0103 | 0.0118
in water | 4.91e-05 | 6.34e-05 | 8.16e-05 | 0.000103 | 0.000131 | 0.000167 | 0.000213 | 0.000267 | 0.000332 | 0.000406
